pIC50: −log10 of the molar value. ≈ marks a conversion by molar mass, not a printed value.
Key:
[1] = system: S. epidermidis (ATCC 17749); experiment: Antibacterial activity, microplate assay; assay type: cell-based; settings: Staphylococcus epidermidis, ATCC17749
[2] = Antioxidant activity assay (ABTS working solution, 734 nm)
Experimental: The antioxidant activity assay was based on the reported methods. The assay was performed on a 96-well microplate, the reaction was initiated by adding 10 µL of sample solution to 200 µL of ABTS working solution. […] The inhibition rate of each sample was calculated according to the following formula: inhibition rate = [(Ablank − Acompound)/Ablank] × 100%.

α-glucosidase = experiment: Inhibitory activity against α-glucosidase (PNPG, 405 nm); settings: read-out: α-glucosidase inhibitory activity IC50; 37 °C, pH 6.8, PNPG substrate

| SMILES | MIC [1] | pIC50 [2] | pIC50 (α-glucosidase) |
| --- | --- | --- | --- |
| O=C(O)c1cn(C2CC2)c2cc(N3CCNCC3)c(F)cc2c1=O [ciprofloxacin] | 0.195 mg/L (≈ 0.589 µM) |  |  |
| CC(=O)OCCC[C@@H]1Cc2cccc(O)c2C(=O)O1 [Compound 19, peniciisocoumarin G] |  | 3.82 |  |
| COc1ccc(O)c2c1C(=O)O[C@H](CCCC(C)=O)C2 [Compound 17, penicimarin H] |  | 3.92 |  |
| COc1ccc2c(c1O)C(=O)O[C@H](CCC[C@@H](C)O)C2 [Compound 2, Talaromarin B] |  | 1.55 |  |
| COc1c(O)ccc2c1C(=O)O[C@H](CCCC(C)=O)C2 [Compound 18, peniciisocoumarin D] |  | 3.80 | 3.42 |
| CC(O)CCCC1Cc2c(ccc(O)c2O)C(=O)O1 (centres unmarked) [Compound 10, 5,6-dihydroxy-3-(4-hydroxypentyl)-isochroman-1-one] |  | 3.96 | 4.00 |
| COc1c(O)ccc2c1C(=O)OC(CCCO)C2 (centres unmarked) [Compound 9, 7-hydroxy-3-(3-hydroxypropyl)-8-methoxyisochroman-1-one] |  | 4.00 |  |
| Cc1c(O)cc2cc(CC(C)O)oc(=O)c2c1O (centres unmarked) [Compound 22, 6,8-dihydroxy-3-(2-hydroxypropyl)-7-methyl-1H-isochromen-1-one] |  | 5.05 |  |
| CC(=O)CCC[C@@H]1Cc2ccc(O)c(O)c2C(=O)O1 [Compound 6, Talaromarin F] |  | 3.85 |  |
| COc1ccc2c(c1O)C(=O)O[C@H](CCCO)C2 [Compound 8, peniciisocoumarin C] |  | 3.89 |  |
| COC(=O)CC[C@@H]1Cc2ccc(OC)c(O)c2C(=O)O1 [Compound 21, penicimarin N] |  |  | 3.21 |
| O=C1O[C@H](CCCO)Cc2cccc(O)c21 [Compound 7, (R)-3-(3-hydroxypropyl)-8-hydroxy-3,4-dihydroisocoumarin] |  | 3.77 |  |
| Cc1c(C)c2c(c(C)c1O)CCC(C)(C(=O)O)O2 (centres unmarked) [Trolox, trolox, reference compound] |  | 3.54 |  |
| CC(O)CCCC1Cc2c(O)ccc(O)c2C(=O)O1 (centres unmarked) [Compound 11, peniciisocoumarin F] |  | 3.92 |  |
| COc1c(C)c(O)cc2cc(C[C@H](C)O)oc(=O)c12 [Compound 23, pestalotiorin] |  |  | 3.27 |

Reference: paper PMC9229493, “Talaromarins A–F: Six New Isocoumarins from Mangrove-Derived Fungus Talaromyces flavus TGGP35” (Marine Drugs, 2022)
